What is called inhibition is the change of the read-out against control, counted positive when it falls. In general, pIC50 refers to the negative decadic logarithm of the IC50, by convention in mol/L. Read a high pIC50 as a low IC50. One may read the GI50 as the concentration giving 50% growth inhibition. Read a low GI50 as greater sensitivity of the cells. A word on the AUC(0-t): it is the area under the concentration-time curve up to a stated or last time point. Higher therefore signals high exposure. Broadly, the half-life is how long it takes for the measured level to halve. A high value points to slow decline. As usually defined, the MRT is a mean duration of stay, worked out from the concentration-time curve. As a reminder, the Tmax is the time from dosing to the highest level. A word on the bioavailability: it is dose-corrected exposure relative to a reference, in per cent. A lower bioavailability goes with little systemic uptake. One may read the Cmax as the peak of the concentration-time curve. Broadly, the T/C is the ratio of treated to control.

The structures appear in SMILES notation. pIC50: −log10 of the molar value. Active and inactive are the calls of the source. The rule behind the calls is not given here.

A short description of series [1]: Intrinsic clearance in human liver microsomes assessed per mg protein. The class given is ADME. As to conditions: read-out: CLH.
For series [2], the target named is T1, Heat shock protein HSP 90-alpha (Homo sapiens, UniProt P07900). As to conditions: U-87MG ATCC.
Description: Inhibition of HSP90alpha in human U87MG cells assessed as increase in HSP70 level at 50 to 200 nM after 24 hrs by western blotting
Series [3] concerns the target T1, Heat shock protein HSP 90-alpha.
Description: Inhibition of HSP90alpha (unknown origin) after 16 hrs by FP enzymatic assay
The test system of series [4] is HeLa. In words: Growth inhibition of human HeLa cells after 72 hrs by SRB assay. The class given is functional.
Series [5] has as its target T1, Heat shock protein HSP 90-alpha. As to conditions: U-87MG ATCC. The source holds these as a separate data set.
Description: Inhibition of HSP90alpha in human U87MG cells assessed as decrease in p-Akt level at 50 to 100 nM after 24 hrs by western blotting
A short description of series [6]: Growth inhibition of human U87MG cells after 72 hrs by SRB assay. The class given is functional, U-87MG ATCC. As to conditions: U-87 MG. A general note: Sulforhodamine B stains cellular protein and so reports cell mass.
Series [7] is described as follows: AUC (0 to t) in mouse at 50 mg/kg, po. Further details: dose 50 mg/kg, route oral. The class given is ADME, organism-based. As to conditions: plasma.
Series [8] concerns the target CYP2D6 (Homo sapiens, UniProt P10635). In words: Inhibition of CYP2D6 in human liver microsomes at 10 uM after 20 mins. On the technique in general: Microsomes from liver hold many membrane-bound enzymes, among them those of drug oxidation.
Series [9] deals with DU-145. Kind of series: Growth inhibition of human DU145 cells after 72 hrs by SRB assay. The class given is functional. As to conditions: DU-145, 72 h.
Series [10] can be described thus: Half life in mouse at 50 mg/kg, po. As to conditions: in vivo. The class given is ADME, organism-based. Further details: dose 50 mg/kg, route oral.
Series [11] concerns MDA-MB-468. In words: Growth inhibition of human MDA-MB-468 cells after 72 hrs by SRB assay. As to conditions: MDA-MB-468, 72 h. The class given is functional.
Series [12] deals with Cytochrome P450 3A4 (Homo sapiens, UniProt P08684). Kind of series: (§1) Inhibition of CYP3A4 in human liver microsomes at 10 uM after 20 mins. As to conditions: microsomes, 20 min, 10 µM.
Chain of Cytochrome P450 3A4 (P08684 whole entry): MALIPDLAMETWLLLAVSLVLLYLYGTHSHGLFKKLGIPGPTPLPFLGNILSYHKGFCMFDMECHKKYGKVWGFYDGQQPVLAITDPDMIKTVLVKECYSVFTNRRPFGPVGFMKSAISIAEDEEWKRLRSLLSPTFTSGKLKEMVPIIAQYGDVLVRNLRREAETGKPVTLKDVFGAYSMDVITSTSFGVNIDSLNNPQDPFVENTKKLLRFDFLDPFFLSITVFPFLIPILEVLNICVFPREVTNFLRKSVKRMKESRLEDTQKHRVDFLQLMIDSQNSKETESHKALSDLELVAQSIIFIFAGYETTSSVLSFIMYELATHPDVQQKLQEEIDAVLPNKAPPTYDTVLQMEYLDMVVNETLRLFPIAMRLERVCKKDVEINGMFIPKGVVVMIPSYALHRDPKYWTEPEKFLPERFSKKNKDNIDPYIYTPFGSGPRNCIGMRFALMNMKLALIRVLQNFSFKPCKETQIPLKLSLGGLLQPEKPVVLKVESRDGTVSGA
For series [13], the target named is T2, CYP1A2 (Homo sapiens, UniProt P05177).
T2 sequence (P05177 whole entry): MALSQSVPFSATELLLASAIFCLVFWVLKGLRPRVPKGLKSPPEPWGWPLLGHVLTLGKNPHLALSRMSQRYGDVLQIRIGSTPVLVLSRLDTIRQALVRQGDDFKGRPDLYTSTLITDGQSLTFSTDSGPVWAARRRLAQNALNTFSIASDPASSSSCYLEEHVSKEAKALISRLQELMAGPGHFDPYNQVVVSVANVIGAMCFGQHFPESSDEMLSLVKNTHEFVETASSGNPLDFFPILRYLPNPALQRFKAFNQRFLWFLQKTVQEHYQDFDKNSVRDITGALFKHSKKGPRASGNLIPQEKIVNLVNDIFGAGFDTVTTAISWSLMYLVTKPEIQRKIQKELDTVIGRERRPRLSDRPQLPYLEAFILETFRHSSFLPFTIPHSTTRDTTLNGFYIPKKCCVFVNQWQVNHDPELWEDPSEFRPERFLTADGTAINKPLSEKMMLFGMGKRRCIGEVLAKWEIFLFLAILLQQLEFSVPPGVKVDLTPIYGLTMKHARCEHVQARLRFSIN
Kind of series: Inhibition of CYP1A2 in human liver microsomes at 10 uM after 20 mins.

Series [14] is described as follows: Mean residence time in mouse at 50 mg/kg, po. The class given is ADME, organism-based. Further details: dose 50 mg/kg, route oral. As to conditions: in vivo.
Series [15] is described as follows: AUC (0 to t) in mouse at 10 mg/kg, iv. The class given is ADME, organism-based. As to conditions: plasma. Also noted: dose 10 mg/kg, route intravenous.
The subject of series [16] is SW480. Kind of series: Growth inhibition of human SW480 cells after 72 hrs by SRB assay. The class given is functional. As to conditions: SW480, 72 h.
Series [17] deals with SK-MEL-28. In words: Growth inhibition of human SK-MEL-28 cells after 72 hrs by SRB assay. The class given is functional. As to conditions: SK-MEL-28, 72 h.
A short description of series [18]: Tmax in mouse at 50 mg/kg, po. As to conditions: in vivo. The class given is ADME, organism-based. Also noted: dose 50 mg/kg, route oral.
For series [19], the system named is SW-620. In words: Growth inhibition of human SW620 cells after 72 hrs by SRB assay. The class given is functional. As to conditions: SW-620, 72 h.
Series [20] has as its target hERG (KCNH2) (Homo sapiens, UniProt Q12809). Kind of series: Inhibition of human ERG at 1 uM.
Series [21] is described as follows: Growth inhibition of human HCC827 cells after 72 hrs by SRB assay. The class given is functional. As to conditions: HCC827, 72 h.
Series [22] is described as follows: Growth inhibition of human HCT116 cells after 72 hrs by SRB assay. As to conditions: HCT-116, 72 h. The class given is functional.
Series [23] can be described thus: Mean residence time in mouse at 10 mg/kg, iv. The class given is ADME, organism-based. Also noted: dose 10 mg/kg, route intravenous. As to conditions: in vivo.
The nature of series [24]: Half life in mouse at 10 mg/kg, iv. The class given is ADME, organism-based. Further details: dose 10 mg/kg, route intravenous. As to conditions: in vivo.
Series [25] has as its system MDA-MB-231. In words: Growth inhibition of human MDA-MB-231 cells after 72 hrs by SRB assay. The class given is functional. As to conditions: MDA-MB-231, 72 h.
The target of series [26] is CYP2C9 (Homo sapiens, UniProt P11712). Kind of series: Inhibition of CYP2C9 in human liver microsomes at 10 uM after 20 mins.
Chain of CYP2C9 (P11712 whole entry): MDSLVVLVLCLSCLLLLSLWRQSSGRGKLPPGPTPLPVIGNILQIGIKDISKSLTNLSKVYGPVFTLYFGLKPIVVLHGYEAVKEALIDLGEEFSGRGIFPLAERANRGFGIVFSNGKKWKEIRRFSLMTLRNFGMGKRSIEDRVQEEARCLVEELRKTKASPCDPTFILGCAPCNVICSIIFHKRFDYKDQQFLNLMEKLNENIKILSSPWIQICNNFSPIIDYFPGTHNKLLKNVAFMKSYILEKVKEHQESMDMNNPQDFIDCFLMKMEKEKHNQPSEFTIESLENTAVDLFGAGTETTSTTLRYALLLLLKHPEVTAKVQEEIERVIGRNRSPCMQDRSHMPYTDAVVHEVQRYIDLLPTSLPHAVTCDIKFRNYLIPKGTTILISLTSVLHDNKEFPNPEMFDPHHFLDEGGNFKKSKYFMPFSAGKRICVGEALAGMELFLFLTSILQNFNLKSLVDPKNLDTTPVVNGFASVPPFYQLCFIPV
A short description of series [27]: Intrinsic clearance in rat liver microsomes assessed per mg protein. The class given is ADME. As to conditions: read-out: CLH.
For series [28], the system named is A549. In words: Growth inhibition of human A549 cells after 72 hrs by SRB assay. As to conditions: A549, 72 h. The class given is functional.
Series [29] can be described thus: Growth inhibition of human OVCAR8 cells after 72 hrs by SRB assay. As to conditions: OVCAR-8, 72 h. The class given is functional.
In series [30] the test system is NCI-H596. In words: Growth inhibition of human NCI-H596 cells after 72 hrs by SRB assay. The class given is functional. As to conditions: NCI-H596, 72 h.
Series [31] deals with HCC1937. Kind of series: Growth inhibition of human HCC1937 cells after 72 hrs by SRB assay. The class given is functional. As to conditions: HCC1937, 72 h.
Series [32] can be described thus: Oral bioavailability in mouse at 50 mg/kg. The class given is ADME, organism-based. As to conditions: in vivo.
Series [33] in a line: Growth inhibition of human 786-O cells after 72 hrs by SRB assay. The class given is functional. As to conditions: 786-0, 72 h.
Series [34] concerns the target T1, Heat shock protein HSP 90-alpha. As to conditions: U-87MG ATCC. The source holds these as a separate data set.
Description: Inhibition of HSP90alpha in human U87MG cells assessed as decrease in c-Met level at 50 to 100 nM after 24 hrs by western blotting
For series [35] the target is unchanged. As to conditions: U-87MG ATCC. This is another data set of the same source.
Description: Inhibition of HSP90alpha in human U87MG cells assessed as increase in HSP27 level at 50 to 200 nM after 24 hrs by western blotting
The nature of series [36]: Cmax in mouse at 50 mg/kg, po. Also noted: dose 50 mg/kg, route oral. As to conditions: in vivo. The class given is ADME, organism-based.
Series [37] has as its target T1, Heat shock protein HSP 90-alpha. As to conditions: U-87MG ATCC. This is another data set of the same source.
Description: Inhibition of HSP90alpha in human U87MG cells assessed as decrease in p-Erk level at 50 to 100 nM after 24 hrs by western blotting
The nature of series [38]: Growth inhibition of human SMMC7721 cells after 72 hrs by SRB assay. The class given is functional. As to conditions: SMMC-7721, 72 h.
The target in series [39] is CYP3A4 (Homo sapiens, UniProt P08684). The series is described as §1. As to conditions: human liver microsomes.
Chain of CYP3A4 (P08684 whole entry): as the sequence (P08684 whole entry) above
The nature of series [40]: Antitumor activity against human U87MG cells xenografted in mouse assessed as tumor growth inhibition at 50 mg/kg, iv dosed 3 times per week for 17 consecutive days relative to control. The class given is functional, U-87MG ATCC. For orientation: In xenograft studies the graft and the host belong to different species.
A short description of series [41]: Antitumor activity against human U87MG cells xenografted in mouse assessed as tumor growth inhibition at 25 mg/kg, iv dosed 3 times per week for 17 consecutive days relative to control. The class given is functional, U-87MG ATCC.
The subject of series [42] is Mus musculus. Kind of series: Toxicity in human U87MG cells xenografted mouse assessed as weight loss at 25 to 50 mg/kg, iv dosed 3 times per week for 17 consecutive days relative to control. The class given is organism-based, U-87MG ATCC. Also noted: dose 25-50 mg/kg, route intravenous. As to conditions: in vivo.

Chain of CYP2D6 (P10635 whole entry): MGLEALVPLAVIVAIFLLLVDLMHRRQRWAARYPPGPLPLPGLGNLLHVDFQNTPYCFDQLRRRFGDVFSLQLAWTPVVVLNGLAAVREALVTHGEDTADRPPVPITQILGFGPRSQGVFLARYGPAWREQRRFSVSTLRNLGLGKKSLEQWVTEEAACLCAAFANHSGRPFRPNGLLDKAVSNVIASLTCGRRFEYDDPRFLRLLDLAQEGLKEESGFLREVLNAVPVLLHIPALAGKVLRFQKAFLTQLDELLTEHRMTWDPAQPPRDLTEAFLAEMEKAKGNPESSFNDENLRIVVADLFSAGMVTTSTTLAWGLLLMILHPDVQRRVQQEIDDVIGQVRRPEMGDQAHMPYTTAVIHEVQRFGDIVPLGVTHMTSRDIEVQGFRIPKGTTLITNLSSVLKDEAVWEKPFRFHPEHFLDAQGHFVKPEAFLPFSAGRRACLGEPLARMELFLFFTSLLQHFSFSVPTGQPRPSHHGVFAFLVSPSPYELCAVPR
Chain of hERG (KCNH2) (Q12809 whole entry): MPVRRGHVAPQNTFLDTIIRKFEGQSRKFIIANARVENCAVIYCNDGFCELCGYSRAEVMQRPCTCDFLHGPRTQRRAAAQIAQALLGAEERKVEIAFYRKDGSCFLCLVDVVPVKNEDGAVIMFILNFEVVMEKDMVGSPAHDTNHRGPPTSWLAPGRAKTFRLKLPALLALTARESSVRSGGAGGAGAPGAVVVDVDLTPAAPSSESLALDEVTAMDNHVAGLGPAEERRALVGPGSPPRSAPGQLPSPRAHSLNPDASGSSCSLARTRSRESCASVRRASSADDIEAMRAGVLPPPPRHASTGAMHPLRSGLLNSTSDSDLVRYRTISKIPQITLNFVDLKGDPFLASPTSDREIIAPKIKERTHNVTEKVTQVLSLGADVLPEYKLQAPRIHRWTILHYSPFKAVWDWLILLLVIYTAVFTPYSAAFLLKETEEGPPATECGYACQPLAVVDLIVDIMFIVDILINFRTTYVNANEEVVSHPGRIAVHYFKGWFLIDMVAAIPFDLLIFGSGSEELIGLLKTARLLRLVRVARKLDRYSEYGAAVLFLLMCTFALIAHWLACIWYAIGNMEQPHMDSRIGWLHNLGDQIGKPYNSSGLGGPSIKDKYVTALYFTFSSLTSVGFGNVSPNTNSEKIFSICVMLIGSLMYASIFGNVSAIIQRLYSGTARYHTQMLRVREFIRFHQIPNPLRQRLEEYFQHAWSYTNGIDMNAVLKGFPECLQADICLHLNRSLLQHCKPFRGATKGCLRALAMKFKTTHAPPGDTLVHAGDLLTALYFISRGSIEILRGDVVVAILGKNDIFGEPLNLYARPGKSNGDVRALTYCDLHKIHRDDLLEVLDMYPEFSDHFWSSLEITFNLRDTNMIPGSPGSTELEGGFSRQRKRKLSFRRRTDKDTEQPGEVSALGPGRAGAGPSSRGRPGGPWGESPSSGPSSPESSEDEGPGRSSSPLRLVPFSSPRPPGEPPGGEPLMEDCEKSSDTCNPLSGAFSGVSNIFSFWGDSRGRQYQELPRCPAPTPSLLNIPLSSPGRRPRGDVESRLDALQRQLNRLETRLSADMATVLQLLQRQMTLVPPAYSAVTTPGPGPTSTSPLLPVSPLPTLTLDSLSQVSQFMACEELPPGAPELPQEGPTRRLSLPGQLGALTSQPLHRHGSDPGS

Take `CC(C)c1cc(-c2noc(NC(=O)C3CC3)c2-c2ccc(CN3CCOCC3)cc2)c(O)cc1O`: the microsomal CLint amounted to 112 µL/min/mg in series [1] and 108 µL/min/mg in series [27]. The inhibition result in series [2], in [5], in [34], in series [35] and in series [37] was “Active” in each case. In series [3], this compound showed a pIC50 of 7.57. Moreover, the GI50 in series [4] stood at 46 nM; in [6], 115 nM; in [9] it was 19 nM; in [11], 42 nM; in [16] it was 21 nM; in [17], 90 nM. Besides, the GI50 is 46 nM in series [19]; 15 nM in series [21]; 35 nM in [22]; 54 nM in [25]; 41 nM in series [28]; 19 nM in series [29]. Further, the GI50 in series [30] was 166 nM; in series [31], 114 nM; in [33] it was 24 nM; in series [38] it was 46 nM. For the same compound, the AUC(0-t) in [7] stood at 496 ng·h/mL; in [15] it was 615 ng·h/mL. Besides, the values for the inhibition at 20 min, 10 µM in [8], in [13] and in series [26] were 79%, 22% and 66%, respectively. For the same compound, the figures for the half-life in [10] and in series [24] were 1.06 h and 1.62 h, respectively. The INH entry in [12] is on record as “Not Active”. Moreover, the MRT came out at 1.54 h in series [14] and 1.86 h in series [23]. For the same compound, in series [18], the Tmax worked out at 4.98 min. For the same compound, in series [20], the inhibition at 1 µM was found to be 10.5%. The same compound registered a bioavailability in series [32] of 16.1%. In addition, in [36], the peak concentration (Cmax) worked out at 438 ng/mL.
For `CCNC(=O)c1noc(-c2cc(C(C)C)c(O)cc2O)c1-c1ccc(CN2CCOCC2)cc1` [LUMINESPIB], the values for the microsomal CLint in [1] and in [27] were 92 µL/min/mg and 180 µL/min/mg, respectively. Also, the inhibition at 20 min, 10 µM came out at 30% in [8], 12% in [39], 23% in series [13] and 46% in [26]. In addition, growth in series [28] was halved (GI50) at 26 nM. In addition, the T/C in series [40] worked out at 34.06%.
For the compound `CC(C)c1cc(-c2noc(NC(=O)C3CC3)c2-c2ccc(CN3CCC(N4CCOCC4)CC3)cc2)c(O)cc1O.Cl`, the T/C in series [41] came out at 48.28%; in series [40], 18.35%. Further, the Activity result in series [42] was “Non-toxic”.
